# Laboratory results from PMC10892836, “Hybrid Molecules of Azithromycin with Chloramphenicol and Metronidazole: Synthesis and Study of Antibacterial Properties” (Pharmaceuticals, 2024).
# Assays:
# 70S E. coli ribosomes = experiment: Competition-binding assay with BODIPY-ERY (fluorescence anisotropy); conditions: displacement of BODIPY-ERY; means, 95% confidence intervals; read-out: Apparent dissociation constant KD
# Method: Affinity of compounds to the 70S E. coli ribosomes (isolated from the E. coli MRE600 strain according to a published procedure) was evaluated with a competition-binding assay using fluorescently labeled erythromycin (BODIPY-ERY) as described earlier. Briefly, BODIPY-ERY (16 nM) was mixed with ribosomes (34 nM) in 384-well plates in the buffer containing 20 mM HEPES-KOH (pH 7.5), 50 mM NH4Cl, 10 mM Mg(CH3CO2)2, 4 mM β-mercaptoethanol, and 0.05% (v/v) Tween-20. Solutions of the tested compounds were added to the obtained complexes to final concentrations from 1 to 1000 nM and incubated for 2 h at 30 °C. The values of fluorescence anisotropy were obtained using the VICTOR X5 Multilabel Plate Reader (PerkinElmer, Waltham, MA, USA). Filters of 485 and 535 nm were used for excitation and emission, respectively. To calculate the apparent dissociation constants, the assumption that the competitive equilibrium binding of two ligands occurs at a single binding site was used. For each compound, at least 2 replicates were performed. Values of apparent dissociation constants are given as means with 95% confidence intervals. The results were visualized using the GraphPad Prism software (version 8.0.1).
# [1] = test system: E. coli ΔtolC pErmCL-ErmC; experiment: MIC, broth microdilution, E. coli ΔtolC panel; type: cell-based; conditions: for MIC: Escherichia coli
# Method: In order to create the construct pErmCL-ErmC, the vector backbone was amplified using pZa-fwd (5′-TAAGAATTCTCTAGCCCG-3′) and pZa-rev (5′-[…]-3′) primers, and the pERMZα plasmid as a template. The ermC gene was amplified from the pERMCTP plasmid with ErmC-fwd (5′-[…]-3′) and ErmC-rev (5′-TAGGCGGGCTAGAGAATTC-3′) primers. The joining of two DNA fragments was performed using the NEBuilder® HiFi DNA Assembly Master Mix (New England Biolabs, Ipswich, MA, USA). Sequences of intermediate products and the final construct were confirmed by Sanger sequencing with appropriate primers.
# (§1) The E. coli ΔtolC strain was also transformed with the pErmC, pErmCL-ErmC, and pERMZα plasmids. The resulting strains were grown at 37 °C in LB medium supplied with 100 μg/mL ampicillin.
# (§2) MIC values for a panel of E. coli ΔtolC strains were determined via the broth microdilution assay as described here with minor modifications. Briefly, the overnight E. coli culture was diluted to an OD600 of 0.01 in the fresh LB medium supplied with 100 μg/mL ampicillin, if required. Then, the cells were additionally incubated for 1–1.5 h at 37 °C with shaking at 200 rpm (Shaker-Incubator ES-20/80, BioSan, Riga, Latvia). Meanwhile, 100 μL of the liquid growth medium was placed in each well of a 96-well sterile plate (200 μL was placed in column 1). Solutions of tested compounds were added in the first column of the plate at 2 times the final concentration of 200 μg/mL. Then, 2-fold serial dilutions were performed. Immediately before use, bacterial inoculum was diluted (1:100) in the growth medium, and 100 μL of it was transferred in each well except for the sterility control column. The plate was incubated overnight (16–20 h) at 37 °C with constant shaking at 200 rpm (Shaker-Incubator ES-20/80, BioSan, Riga Latvia). Cell growth was assessed by scanning the OD600 with a VICTOR X5 Multilabel Plate Reader (PerkinElmer, Waltham, MA, USA).
# (§3) Minimum inhibitory concentration (MIC) was defined as the lowest concentration of a chemical compound that inhibits the visible growth of the bacterial strain. At least three replicates of MIC measurements were performed.
# E. coli ΔtolC pErmC = experiment: MIC, broth microdilution, E. coli ΔtolC panel; type: cell-based; conditions: Escherichia coli
# Method: as §1, §2, §3
# E. coli ΔtolC pERMZα = experiment: MIC, broth microdilution, E. coli ΔtolC panel; type: cell-based; conditions: Escherichia coli
# Method: as §1, §2, §3
# E. coli ΔtolC = experiment: MIC, broth microdilution, E. coli ΔtolC panel; type: cell-based; conditions: Escherichia coli
# Description: The E. coli JW5503 strain with a deletion of the tolC gene (referred to here as E. coli ΔtolC) was kindly provided by Prof. Hironori Niki, National Institute of Genetics, Japan. The E. coli BW25113 strain with a partial deletion of the lptD gene, codons 330 to 352 (referred to here as E. coli lptD^mut) was kindly provided by Prof. Alexander S. Mankin, University of Illinois, Chicago, IL, USA [44]. The E. coli ΔtolC strain was transformed with the pDualrep2 (Amp^R) plasmid, whereas the E. coli lptD^mut strain was transformed with the pDualrep2 (Kan^R) plasmid (not yet published). Both E. coli strains were grown at 37 °C in Luria–Bertani (LB) medium supplemented with either 100 μg/mL ampicillin or 50 μg/mL kanamycin.
# as §2, §3
# [2] = test system: Propionibacterium acnes 55; experiment: MIC, agar dilution, anaerobic bacteria (CLSI M11-A9); type: cell-based; conditions: Cutibacterium acnes; P. acnes 55, anaerobic clinical isolate
# [3] = test system: cell-free bacterial translation system based on the E. coli S30 lysate; experiment: In vitro translation in a cell-free bacterial system (firefly luciferase synthesis); type: biochemical; conditions: final concentration 5 μM; water control = 100%
# Method: The inhibition of firefly luciferase (Fluc) synthesis by new azithromycin derivatives was assessed with the E. coli S30 Extract System for Linear Templates (Promega, Madison, WI, USA). Each reaction (5 μL total volume) was supplied with 0.1 mM mixture of all canonical amino acids, 4 U of RiboLock RNase Inhibitor (Thermo Fisher Scientific, Waltham, MA, USA), 0.1 mM of D-luciferin (Sigma-Aldrich, Burlington, MA, USA), 50 ng of firefly luciferase (Fluc) mRNA, and a chemical compound at a final concentration, as indicated in the main text, or nuclease-free water instead. Before the addition of mRNA, reaction tubes were pre-incubated at RT for 5 min and then placed back on ice. After the addition of mRNA, reaction mixtures were immediately subjected to continuous chemiluminescence measurement using the VICTOR X5 Multilabel Plate Reader (PerkinElmer, Waltham, MA, USA) at 37 °C for 30 min. Maximal rates of the firefly luciferase (Fluc) accumulation were calculated using the OriginPro 7.5 software. The values were normalized to a positive control (nuclease-free water, assigned a value of 100%). The results were visualized using the QtiPlot software (version 0.9.8.9).
# [4] = test system: Streptococcus pneumoniae ATCC 6305; experiment: MIC, broth microdilution (CLSI); type: cell-based; conditions: ATCC6305, S. pneumoniae ATCC 6305, Table S3
# Method: To evaluate the antimicrobial activity of hybrid molecules, clinical and reference strains obtained from the Laboratory of Medical Microbiology of the State Scientific Center of Antibiotics (Moscow, Russia) were used. The activity of azithromycin derivatives conjugated with chloramphenicol was tested on the following reference strains: Streptococcus pneumoniae ATCC 49619, Staphylococcus aureus ATCC 29213, and Escherichia coli ATCC 25922. Additionally, azithromycin derivatives conjugated with metronidazole were tested on the Streptococcus agalactiae 1Cp strain, Streptococcus pneumoniae ATCC 6305 strain (see Table S3, Supplementary Materials), on the anaerobic Gram-positive Clostridium sporogenes ATCC 19404 strain, and Propionibacterium acnes 55 clinical isolate.
# Minimum inhibitory concentration (MIC) values for facultative anaerobic bacteria were determined using the broth microdilution method outlined in the CLSI guidelines. Initially, all compounds were dissolved in dimethyl sulfoxide (DMSO) to achieve a concentration of 10 mg/mL. Subsequently, they were diluted with the Mueller–Hinton nutrient broth (MHB) supplemented with 5% defibrinated horse blood (for Streptococcus spp.) to a concentration of 64 μg/mL. […]
# [5] = test system: Staphylococcus aureus ATCC 29213; experiment: MIC, broth microdilution (CLSI); type: cell-based; conditions: ATCC29213, S. aureus ATCC 29213
# Method: (§4) Minimum inhibitory concentration (MIC) values for facultative anaerobic bacteria were determined using the broth microdilution method outlined in the CLSI guidelines. Initially, all compounds were dissolved in dimethyl sulfoxide (DMSO) to achieve a concentration of 10 mg/mL. Subsequently, they were diluted with the Mueller–Hinton nutrient broth (MHB) supplemented with 5% defibrinated horse blood (for Streptococcus spp.) to a concentration of 64 μg/mL. Following 2-fold serial dilutions of the substances, bacterial cultures in the log growth phase were added to 96-well plates at a concentration of 2.5–5 × 10^5 CFU/mL, and the plates were incubated at 37 °C for 16–20 h.
# as §3
# [6] = test system: Escherichia coli ATCC 25922; experiment: MIC, broth microdilution (CLSI); type: cell-based; conditions: ATCC25922, E. coli ATCC 25922
# Method: as §4, §3
# [7] = test system: Streptococcus agalactiae 1Cp; experiment: MIC, broth microdilution (CLSI); type: cell-based; conditions: S. agalactiae 1Cp
# Method: as §4, §3
# [8] = test system: Streptococcus pneumoniae ATCC 49619; experiment: MIC, broth microdilution (CLSI); type: cell-based
# Method: as §4, §3
# [9] = test system: ribosome stalling on ermCL mRNA; experiment: Toe-printing (primer extension inhibition) analysis on ermCL mRNA; type: biochemical; conditions: 50 μM (chloramphenicol 30 μM)
# Method: The toe-printing (primer extension inhibition) analysis of azithromycin derivatives was carried out essentially as previously described with some minor modifications, as indicated below. The DNA template ErmCL was generated by PCR using two overlapping primers, ErmCL-fwd (5′-[…]-3′) and ErmCL-rev (5′-[…]-3′). Before the addition of the DNA template to reaction mixtures at the in vitro translation step, tubes were pre-incubated at RT for 5 min. Moreover, phenol-chloroform extraction of reverse transcription products was replaced with DNA purification using the QIAquick® PCR Purification Kit (Qiagen, Hilden, Germany) according to the manufacturer’s protocol.
# Figure 4 Toe-printing (or primer extension inhibition) analysis of azithromycin derivatives on ermCL mRNA. Ribosome stalling is detected via reverse transcription in a cell-free bacterial transcription–translation coupled system. The toe-printing bands are marked with colored arrowheads, and the A-site codons (except for the start codon, P-site codon is indicated) occupied by the stalled ribosomes are indicated in the mRNA sequence with the corresponding colors. The stop codon is marked with an asterisk. All compounds but chloramphenicol (CLM) were tested at 50 μM. Chloramphenicol (CLM) was tested at 30 μM. DMSO was used as a negative control at 0.25% final concentration. Thiostrepton (THS) was used to indicate the translation start site.
# [10] = test system: Clostridium sporogenes ATCC 19404; experiment: MIC, agar dilution, anaerobic bacteria (CLSI M11-A9); type: cell-based; conditions: ATCC19404, C. sporogenes ATCC 19404, anaerobic
# Method: The antimicrobial activity against anaerobic bacteria was evaluated using the agar dilution method in accordance with the CLSI document M11-A9 [58]. Twofold serial dilutions of compounds, at 10 times the desired concentration, were prepared in water and diluted (1:10) with the Brucella Agar medium containing 5% defibrinated horse blood, 5 mg/L hemin, and 1 mg/L vitamin K. The resulting plates were inoculated with approximately 10^5 CFU per spot using a replicator and incubated anaerobically at 36 °C for 48 h.
# as §3
# [11] = ATCC49619, S. pneumoniae ATCC 49619, Tables 2 and 3
Compound,Kd (70S E. coli ribosomes) [nM],Fold increase in the MIC value on E. coli ΔtolC pErmCL-ErmC compared to E. coli ΔtolC [1],MIC [1] [mg/L],MIC (E. coli ΔtolC pErmC) [mg/L],MIC (E. coli ΔtolC pERMZα) [mg/L],MIC (E. coli ΔtolC) [mg/L],MIC [2] [mg/L],Relative luciferase activity (relative maximal rate of Fluc accumulation) [3] [%],MIC [4] [mg/L],MIC [5] [mg/L],MIC [6] [mg/L],MIC ([7]; Table 3) [mg/L],"MIC ([7]; Table S3, comparison with 2′-O-deacetyl metabolites) [mg/L]","MIC ([8]; ATCC49619, S. pneumoniae ATCC 49619, Table S3, comparison with 2′-O-deacetyl metabolites) [mg/L]","MIC [8, 11] [mg/L]",Ribosome stalling pattern on ermCL mRNA [9],MIC [10] [mg/L]
"CC[C@H]1OC(=O)[C@H](C)[C@@H](O[C@H]2C[C@@](C)(OC)[C@@H](O)[C@H](C)O2)[C@H](C)[C@@H](O[C@@H]2O[C@H](C)C[C@H](N(C)C)[C@H]2O)[C@](C)(O)C[C@@H](C)CN(C)[C@H](C)[C@@H](O)[C@]1(C)O [AZT, azithromycin]",0.4 ± 0.1,4 fold,3.1,> 200,0.8,0.8,< 0.06,0.3,0.03,0.5,2,0.015,0.03,0.03,0.06,induces ribosome stalling when GUA (Val) or AGC (Ser) codons enter the A-site of the ribosome,4
"O=C(N[C@H](CO)[C@H](O)c1ccc([N+](=O)[O-])cc1)C(Cl)Cl [CLM, Chloramphenicol]",–,no changes in the MIC values,1.6,1.6,1.6,1.6,–,21,–,8,8,–,–,–,4,strong ribosome stalling when the Ser codon (AGU) occupies the E-site of the ribosome,–
